Assay results from patent US9403813B2, “Azetidine amide derivatives as orexin receptor antagonists” (ACTELION PHARMACEUTICALS LTD, priority 2013, dated 2016).
pIC50: −log10 of the molar value.

Key:
[1] = molecular target: human orexin-2 receptor (Homo sapiens (Human), UniProt O43614); experiment: Intracellular calcium measurements (FLIPR), antagonism of orexin-A response; assay type: cell-based; conditions: CHO cells expressing human orexin-2 receptor, 3 nM orexin-A, geometric mean if determined several times, read-out: IC50 OX2
Outline: (§1)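 CHO cells expressing human OX1 or OX2 receptor, loaded with fluo-4 AM plus probenecid, preincubated with antagonist 120 min before 3 nM orexin-A challenge. FLIPR calcium peak heights compared with agonist-plus-vehicle response. IC50 possibly normalized to on-plate reference; geometric mean of repeat determinations.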

[2] = molecular target: human orexin-1 receptor (Homo sapiens (Human), UniProt O43613); experiment: as above; assay type: cell-based; conditions: CHO cells expressing human orexin-1 receptor, 3 nM orexin-A, geometric mean if determined several times, read-out: IC50 OX1
Outline: as §1

human orexin-2 receptor, sequence (O43614 whole entry): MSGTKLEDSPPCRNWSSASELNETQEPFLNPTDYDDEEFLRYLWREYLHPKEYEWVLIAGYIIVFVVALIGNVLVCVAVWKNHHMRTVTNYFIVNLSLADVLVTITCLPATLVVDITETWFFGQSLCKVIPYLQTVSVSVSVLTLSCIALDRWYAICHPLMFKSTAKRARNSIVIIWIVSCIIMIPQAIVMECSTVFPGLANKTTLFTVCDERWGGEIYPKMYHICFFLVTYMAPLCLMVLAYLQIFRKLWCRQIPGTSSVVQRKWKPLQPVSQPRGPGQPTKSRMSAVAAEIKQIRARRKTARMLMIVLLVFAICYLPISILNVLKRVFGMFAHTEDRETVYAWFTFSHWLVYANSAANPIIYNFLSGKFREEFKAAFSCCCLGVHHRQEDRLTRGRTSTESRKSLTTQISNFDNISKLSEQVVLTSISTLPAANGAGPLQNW
human orexin-1 receptor, sequence (O43613 whole entry): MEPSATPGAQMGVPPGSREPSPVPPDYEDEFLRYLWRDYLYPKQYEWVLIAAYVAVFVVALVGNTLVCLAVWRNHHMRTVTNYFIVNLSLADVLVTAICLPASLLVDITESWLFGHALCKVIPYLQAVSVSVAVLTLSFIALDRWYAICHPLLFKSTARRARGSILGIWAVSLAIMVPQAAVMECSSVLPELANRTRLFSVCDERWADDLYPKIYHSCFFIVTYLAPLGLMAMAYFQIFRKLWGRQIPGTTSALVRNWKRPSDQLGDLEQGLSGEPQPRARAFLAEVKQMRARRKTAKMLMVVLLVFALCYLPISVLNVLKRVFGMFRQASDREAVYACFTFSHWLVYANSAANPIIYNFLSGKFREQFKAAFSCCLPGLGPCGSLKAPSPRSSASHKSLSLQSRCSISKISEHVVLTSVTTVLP

Row | pIC50 [1] | pIC50 [2] | Compound
1 | 7.49 | 6.22 | Cc1ccc(-c2ncccn2)c(C(=O)N2CC[C@H]2c2noc(-c3cccc(Cl)c3C)n2)c1 [Example 117, {(S)-2-[5-(3-Chloro-2-methyl-phenyl)-[1,2,4]oxadiazol-3-yl]-azetidin-1-yl}-(5-methyl-2-pyrimidin-2-yl-phenyl)-methanone]
2 | 8.40 | 7.09 | COc1c(Cl)cccc1-c1nc([C@@H]2CCN2C(=O)c2ccc(C)cc2-n2nccn2)no1 [Example 118, {(S)-2-[5-(3-Chloro-2-methoxy-phenyl)-[1,2,4]oxadiazol-3-yl]-azetidin-1-yl}-(4-methyl-2-[1,2,3]triazol-2-yl-phenyl)-methanone]
3 | 8.40 | 7.42 | COc1c(Cl)cccc1-c1nc([C@@H]2CCN2C(=O)c2ccc(Cl)cc2-n2nccn2)no1 [Example 119, {(S)-2-[5-(3-Chloro-2-methoxy-phenyl)-[1,2,4]oxadiazol-3-yl]-azetidin-1-yl}-(4-chloro-2-[1,2,3]triazol-2-yl-phenyl)-methanone]
4 | 6.35 | 4.87 | Cc1ccc(-n2nccn2)c(C(=O)N2CC[C@H]2c2nnc(-c3ccccc3)[nH]2)c1 [Example 120, (5-Methyl-2-[1,2,3]triazol-2-yl-phenyl)-[(S)-2-(5-phenyl-4H-[1,2,4]triazol-3-yl)-azetidin-1-yl]-methanone]
5 | 6.49 | 5.04 | Cc1ccc(C(=O)N2CC[C@H]2c2nnc(-c3ccccc3)[nH]2)c(-n2nccn2)c1 [Example 121, (4-Methyl-2-[1,2,3]triazol-2-yl-phenyl)-[(S)-2-(5-phenyl-4H-[1,2,4]triazol-3-yl)-azetidin-1-yl]-methanone]
6 | 7.04 | 5.64 | CCOc1ncccc1-c1nnc([C@@H]2CCN2C(=O)c2cc(C)ccc2-n2nccn2)[nH]1 [Example 122, {(S)-2-[5-(2-Ethoxy-pyridin-3-yl)-4H-[1,2,4]triazol-3-yl]-azetidin-1-yl}-(5-methyl-2-[1,2,3]triazol-2-yl-phenyl)-methanone]
7 | 6.50 | 5.69 | CCOc1ncccc1-c1nnc([C@@H]2CCN2C(=O)c2ccc(C)cc2-n2nccn2)[nH]1 [Example 123, {(S)-2-[5-(2-Ethoxy-pyridin-3-yl)-4H-[1,2,4]triazol-3-yl]-azetidin-1-yl}-(4-methyl-2-[1,2,3]triazol-2-yl-phenyl)-methanone]
8 | 6.62 | 5.23 | Cc1ccc(-n2nccn2)c(C(=O)N2CC[C@H]2c2nnc(-c3cccc(Cl)c3C)[nH]2)c1 [Example 124, {(S)-2-[5-(3-Chloro-2-methyl-phenyl)-4H-[1,2,4]triazol-3-yl]-azetidin-1-yl}-(5-methyl-2-[1,2,3]triazol-2-yl-phenyl)-methanone]
9 | 7.25 | 5.61 | Cc1ccc(-n2nccn2)c(C(=O)N2CC[C@H]2c2nnc(-c3ccccc3OC(F)(F)F)[nH]2)c1 [Example 125, (5-Methyl-2-[1,2,3]triazol-2-yl-phenyl)-{(S)-2-[5-(2-trifluoromethoxy-phenyl)-4H-[1,2,4]triazol-3-yl]-azetidin-1-yl}-methanone]
10 | 6.77 | 5.14 | COc1c(Cl)cccc1-c1nnc([C@@H]2CCN2C(=O)c2cc(C)ccc2-n2nccn2)[nH]1 [Example 126, {(S)-2-[5-(3-Chloro-2-methoxy-phenyl)-4H-[1,2,4]triazol-3-yl]-azetidin-1-yl}-(5-methyl-2-[1,2,3]triazol-2-yl-phenyl)-methanone]
11 | 7.96 | 6.06 | Cc1ccc(C(=O)N2CC[C@H]2c2nnc(-c3ccccc3OC(F)(F)F)[nH]2)c(-n2nccn2)c1 [Example 127, (4-Methyl-2-[1,2,3]triazol-2-yl-phenyl)-{(S)-2-[5-(2-trifluoromethoxy-phenyl)-4H-[1,2,4]triazol-3-yl]-azetidin-1-yl}-methanone]
